What all share (format): physicochemical
A short description of data set [1]: Solubilization enhancement with PVP K-30 and citric acid (Preparation C). The method, then: Approximately 1.0, 1.5, 1.6, 2.5 and 3.0 grams of amorphous paroxetine HCl were weighed into five 25-ml volumetric flasks. Ten milliliters of an ethanol-water (20% v/v ethanol) mixture containing 0.25 grams of polyvinyl pyrrolidone (PVP) K-30 and 0.02 grams of citric acid anhydrous were added into each of the five flasks and the flasks were sonicated for 30 minutes. Only the solution in flask 1 became clear while only part of the paroxetine HCl in flasks 2 through 5 dissolved.

A short description of data set [2]: Solubility in aqueous alcohol (Preparation B). On the procedure: A. Exactly two milliliters of ethanol were added to each of the nine flasks from Preparation A and the flasks shaken gently by hand. […] B. Approximately 250, 320, 400, 570 and 1120 mg of amorphous paroxetine HCl were weighed into five 25-ml volumetric flasks labeled 1 through 5 respectively. Ten milliliters of ethanol-water mixture containing 20% v/v ethanol were pipetted into each of the flasks and the flasks were stoppered. The flasks were then placed in a sonicator (Branson 1210, Danbury, Conn.) and sonicated for ten minutes taking care to see that there was no heating.

Data set [3] is described as follows: Determination of solubility in deionized water (Preparation A). As to conditions: room temperature, sonicated 10 min, still clear after 24 hours. The method, then: Approximately 45, 100, 200, 300, 400, 500, 510, 750 and 1000 mg of amorphous paroxetine HCl were weighed into nine 25-ml volumetric flasks labeled 1 through 9 respectively. Ten milliliters of deionized water were pipetted into each of the flasks and the flasks were stoppered. The flasks were then placed in a sonicator (Branson 1210, Danbury, Conn.) and sonicated for ten minutes taking care to see that there was no heating.

Counter-ions that a name gives are not always drawn.

One may read the solubility as the dissolved amount per volume that the medium holds.

`Fc1ccc([C@@H]2CCNC[C@H]2COc2ccc3c(c2)OCO3)cc1` [Paroxetine HCl]: in data set [1] (60 °C, aqueous with cosolvent or surfactant or cyclodextrin, thermodynamic from solid), the solubility at 30 min was more than 300 mg/mL.

As to `Cl.Fc1ccc([C@@H]2CCNC[C@H]2COc2ccc3c(c2)OCO3)cc1` [amorphous paroxetine HCl], the appearance of solution result was “clear solution with a slight precipitate” in data set [2] (1120 mg in 10 ml ethanol-water 20% v/v ethanol, sonicated 10 min (flask 5)); “clear solutions” in data set [2] (250, 320, 400, 570 mg in 10 ml ethanol-water 20% v/v ethanol, sonicated 10 min (flasks 1-4)); “became clear” in data set [1] (1.0 g in 10 ml 20% v/v ethanol with 0.25 g PVP K-30 and 0.02 g citric acid, sonicated 30 min (flask 1)). Besides, the “amount that could be dissolved in hydroalcoholic solvent mixture” value in data set [2] (about 15% ethanol (10 ml water + 2 ml ethanol)) was “at least 1 gram”. For the same compound, the maximum solubility result was “about 75 mg/ml” in data set [3] (HCl) and “up to 75 mg/ml” in data set [3] (listed as amorphous form of paroxetine HCl). In addition, the “appearance of solution upon heating” value in data set [1] (1.0-3.0 g in 10 ml 20% v/v ethanol with 0.25 g PVP K-30 and 0.02 g citric acid, heated to about 60° C.) is “all the solutions became clear”. Moreover, the extent of dissolution result in data set [1] (1.5, 1.6, 2.5, 3.0 g in 10 ml 20% v/v ethanol with 0.25 g PVP K-30 and 0.02 g citric acid, sonicated 30 min (flasks 2-5)) was “only part”.
